Laboratory results published in US10221178B2, “Purine inhibitors of human phosphatidylinositol 3-kinase delta” (MERCK SHARP & DOHME CORP., priority 2015, dated 2019).

How the values were obtained:
[1] = target: PI3Kdelta (Homo sapiens (Human), UniProt O00329); assay: HTRF PI3K biochemical assay, delta isoform; details: 0.3 nM enzyme, 100 uM ATP, 5 uM PIP2, form screened: Neutral
Source text: (§1) HTRF PI3K Biochemical Assay to Measure Intrinsic Potency of Compound Inhibitors
(§2) The PI3-Kinase biochemical assays were developed to measure the intrinsic potency and compound dependent inhibition of the alpha, beta, delta, and gamma PI3K isoform enzymes.
(§3) This assay was developed and further optimized from a kit produced by Upstate (Millipore catalog #33-047) and has been configured for HTS (high throughput screening) and SAR screening. Briefly, this procedure exploits the exquisite specificity and high affinity binding of enzyme reaction substrate phosphatidyl(3,4,5)triphosphate (PIP3) to the GRP1 pleckstrin homology (PH) domain to generate the signal. In the absence of PIP3, an HTRF (Homogeneous Time-Resolved Fluorescence energy transfer) complex is formed consisting of europium (Eu)-labeled anti-GST, GSTtagged GRP1-PH domain, biotin-PIP3 and streptavidin conjugated APC. The native PIP3 produced by PI3-Kinase activity disrupts in a competitive manner the biotin-PIP3 from the PH domain, resulting in the loss of energy transfer (HTRF complex) and a decrease in the signal. The format of this assay is the same for all 4 isoforms of PI3K; the differences lie in the concentration of enzyme used to achieve robust assay window. The alpha, beta, and delta assays are run at 0.5, 1, and 0.3 nM enzymes and the gamma assay is run at 5 nM enzyme. The ATP concentration is 100 uM in the alpha, beta, and delta assays and 50 uM ATP in the gamma assay. All reactions are run at 5 uM PIP2.
(§4) Compounds are serially diluted (3-fold in 100% DMSO) across a 384-well polypropylene source plated from column 3 to column 12 and column 13 to column 22, to yield 10 concentration dose response for each test compound. Columns 1, 2, 23 and 24 contain either only DMSO or pharmacological known control inhibitor. Once titrations are made, 2.5 nL of the compounds on 384 well plates are reformatted and transferred by acoustic dispense in quadruplicates to a 1536 assay plate (Greiner) to assay across all four PI3K isoform enzymes.
(§5) The PI3-Kinase biochemical assay was optimized using the HTRF kit provided by Upstate (Millipore). The assay kit contains six reagents: 1) 4× Reaction Buffer; 2) native PIP2 (substrate); 3) Stop (EDTA); 4) Detection Mix A (Streptavidin-APC); 5) Detection Mix B (Eu-labeled Anti-GST plus GST-tagged PH-domain); 6) Detection Mix C. In addition, the following items were obtained or purchased; PI3Kinase (alpha 14-602, beta 14-603, gamma 14-558 and delta 14-604 from Upstate; Millipore), dithiothreitol (Sigma, D-5545), Adenosine-5′ triphosphate (InVitrogen, Cat#AS001A), native PIP3 (PI(3,4,5)P3, diC8, H^+, CELLSIGNALS, INC. Cat #907) DMSO (Sigma, 472301).
(§6) PI3Kinase Reaction Buffer is prepared by dilution the stock 1:4 with de-ionized water. DTT, PIP2 and Biotin-PIP3 were added to 1536 assay plate at a final concentration of 5 mM, […] on the day of use. Enzyme addition and compound pre-incubation are initiated by the addition of 1.25 ul of PI3K (at twice its final concentration) in the 1× reaction buffer to all wells using a BioRaptor. Plates are incubated at RT for 15 minutes. Reactions are initiated by addition of 1.25 ul of 2× substrate solution (PIP2 and ATP in 1× reaction buffer) using BioRaptor. Plates are incubated in humidified chamber at RT for one hour. Reactions are quenched by addition of 0.625 uL of stop solution to all wells using the BioRaptor. The quenched reactions are then processed to detect product formation by adding 0.625 uL of Detection Solution to all wells using the BioRaptor (Detection mix C, Detection Mix A, and Detection Mix B combined together in an 18:1:1 ratio prepared 2 hours prior to use). Following a one hour incubation in the dark, the HTRF signal is measured on the Envision plate reader set for 330 nm excitation and dual emission detection at 620 nM (Eu) and 665 nM (APC).

[2] = target: PI3Kalpha (Homo sapiens (Human), UniProt P42336); assay: HTRF PI3K biochemical assay, alpha isoform (selectivity versus PI3Kalpha); details: relative ratio (PI3K-alpha IC50 value/PI3K-delta IC50 value); form screened: Neutral
Source text: as §1, §2, §3, §4, §5
as §6, with “[…]. […]” for “(APC).”

Sequence of PI3Kdelta (O00329 whole entry, canonical isoform): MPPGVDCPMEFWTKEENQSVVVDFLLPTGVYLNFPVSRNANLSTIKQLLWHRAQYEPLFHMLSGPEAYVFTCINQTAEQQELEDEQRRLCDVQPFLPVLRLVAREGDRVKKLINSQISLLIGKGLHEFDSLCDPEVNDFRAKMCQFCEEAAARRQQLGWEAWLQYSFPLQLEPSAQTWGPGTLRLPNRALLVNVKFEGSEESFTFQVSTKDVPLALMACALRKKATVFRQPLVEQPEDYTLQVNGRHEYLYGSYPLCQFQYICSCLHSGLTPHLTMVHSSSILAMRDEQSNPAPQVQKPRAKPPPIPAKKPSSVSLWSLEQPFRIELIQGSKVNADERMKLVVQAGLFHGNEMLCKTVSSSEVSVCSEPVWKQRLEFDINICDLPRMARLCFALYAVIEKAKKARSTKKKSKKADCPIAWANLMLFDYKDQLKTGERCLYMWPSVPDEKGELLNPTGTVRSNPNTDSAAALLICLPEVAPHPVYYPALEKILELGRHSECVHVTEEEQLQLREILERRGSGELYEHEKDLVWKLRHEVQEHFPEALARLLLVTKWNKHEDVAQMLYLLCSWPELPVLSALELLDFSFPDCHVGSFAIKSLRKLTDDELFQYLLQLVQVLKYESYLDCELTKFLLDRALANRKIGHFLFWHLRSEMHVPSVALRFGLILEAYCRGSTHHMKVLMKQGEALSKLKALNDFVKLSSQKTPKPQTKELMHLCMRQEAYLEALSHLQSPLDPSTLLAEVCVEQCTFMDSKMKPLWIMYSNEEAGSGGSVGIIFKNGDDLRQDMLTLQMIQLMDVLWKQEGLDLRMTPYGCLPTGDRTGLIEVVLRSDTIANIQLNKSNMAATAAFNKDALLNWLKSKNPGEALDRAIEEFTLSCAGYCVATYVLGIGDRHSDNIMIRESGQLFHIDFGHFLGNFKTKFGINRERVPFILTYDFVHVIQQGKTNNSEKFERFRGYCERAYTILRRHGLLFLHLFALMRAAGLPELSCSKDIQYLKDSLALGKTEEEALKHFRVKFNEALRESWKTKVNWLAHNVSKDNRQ
Sequence of PI3Kdelta (P27986 whole entry partner, canonical isoform): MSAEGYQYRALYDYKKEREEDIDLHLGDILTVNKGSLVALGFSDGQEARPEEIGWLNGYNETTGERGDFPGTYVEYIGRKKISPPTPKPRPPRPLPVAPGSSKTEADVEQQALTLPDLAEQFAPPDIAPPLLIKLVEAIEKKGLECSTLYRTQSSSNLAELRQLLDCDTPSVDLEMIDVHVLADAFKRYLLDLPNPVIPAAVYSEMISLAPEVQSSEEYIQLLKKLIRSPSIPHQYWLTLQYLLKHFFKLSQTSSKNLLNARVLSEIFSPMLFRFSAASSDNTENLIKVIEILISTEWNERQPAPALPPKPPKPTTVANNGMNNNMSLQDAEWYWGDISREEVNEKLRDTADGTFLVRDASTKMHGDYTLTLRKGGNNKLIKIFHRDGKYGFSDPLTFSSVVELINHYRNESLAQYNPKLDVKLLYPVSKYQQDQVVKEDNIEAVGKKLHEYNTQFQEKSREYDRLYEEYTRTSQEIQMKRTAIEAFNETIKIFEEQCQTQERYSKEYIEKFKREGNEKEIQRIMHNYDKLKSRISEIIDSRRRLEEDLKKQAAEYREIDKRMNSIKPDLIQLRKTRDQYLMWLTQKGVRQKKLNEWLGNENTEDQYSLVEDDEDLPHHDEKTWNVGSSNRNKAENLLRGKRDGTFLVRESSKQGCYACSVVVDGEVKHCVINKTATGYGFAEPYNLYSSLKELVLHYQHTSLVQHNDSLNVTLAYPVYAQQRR
Sequence of PI3Kalpha (P42336 whole entry, canonical isoform): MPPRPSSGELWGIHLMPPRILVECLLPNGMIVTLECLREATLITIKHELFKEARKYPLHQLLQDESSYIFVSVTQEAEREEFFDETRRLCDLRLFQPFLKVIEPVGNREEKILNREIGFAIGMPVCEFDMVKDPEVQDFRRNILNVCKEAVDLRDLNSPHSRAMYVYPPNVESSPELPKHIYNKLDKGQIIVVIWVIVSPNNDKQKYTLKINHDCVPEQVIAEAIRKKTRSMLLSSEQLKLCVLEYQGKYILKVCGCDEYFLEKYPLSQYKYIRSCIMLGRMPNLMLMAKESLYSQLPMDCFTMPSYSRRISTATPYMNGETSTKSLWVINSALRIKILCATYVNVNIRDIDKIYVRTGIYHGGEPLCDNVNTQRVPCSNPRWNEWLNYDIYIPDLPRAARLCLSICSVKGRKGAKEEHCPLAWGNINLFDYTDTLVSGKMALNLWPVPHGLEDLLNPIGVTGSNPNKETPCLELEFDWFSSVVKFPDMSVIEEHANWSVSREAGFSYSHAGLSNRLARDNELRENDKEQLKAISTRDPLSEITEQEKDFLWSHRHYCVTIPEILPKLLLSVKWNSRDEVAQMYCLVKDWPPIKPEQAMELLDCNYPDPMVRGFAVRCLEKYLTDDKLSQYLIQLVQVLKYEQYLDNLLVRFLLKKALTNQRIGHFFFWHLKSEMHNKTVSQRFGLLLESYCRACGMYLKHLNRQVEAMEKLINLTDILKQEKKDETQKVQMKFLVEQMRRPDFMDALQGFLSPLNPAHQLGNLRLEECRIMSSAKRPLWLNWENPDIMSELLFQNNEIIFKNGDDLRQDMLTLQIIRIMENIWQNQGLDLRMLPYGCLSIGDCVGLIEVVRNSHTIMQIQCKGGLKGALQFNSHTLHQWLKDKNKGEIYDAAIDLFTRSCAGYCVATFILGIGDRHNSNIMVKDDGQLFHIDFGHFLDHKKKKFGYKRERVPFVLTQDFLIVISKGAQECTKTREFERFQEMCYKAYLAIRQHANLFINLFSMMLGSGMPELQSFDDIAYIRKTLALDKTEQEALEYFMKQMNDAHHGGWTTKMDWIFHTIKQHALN
Sequence of PI3Kalpha (P27986 whole entry partner, canonical isoform): as the sequence (P27986 whole entry partner, canonical isoform) above

`CCn1c(-c2cnc(C)nc2)nc2c(NC[C@@H](C)C(=O)N3C[C@@H](C)O[C@@H](C)C3)ncnc21` [Compound 2-55, N-{(2R)-3-[(cis)-2,6-dimethylmorpholin-4-yl]-2-methyl-3-oxopropyl}-9-ethyl-8-(2-methylpyrimidin-5-yl)-9H-purin-6-amine] was tested, and the IC50 [1] was 20 nM and the “Selectivity versus PI3Kalpha” value [2] was >10.
With `CC[C@H](Nc1ncnc2c1nc(-c1cnc(C)nc1)n2CC)C(=O)N1CCCOCC1` [Compound 2-25, 9-ethyl-8-(2-methylpyrimidin-5-yl)-N-[(1S)-1-(1,4-oxazepan-4-ylcarbonyl)propyl]-9H-purin-6-amine] the IC50 [1] was 21 nM and the “Selectivity versus PI3Kalpha” value [2] was >10.
For `CCn1c(-c2cnc(C)nc2)nc2c(N[C@H](C(=O)N3C[C@@H](C)O[C@@H](C)C3)C(C)C)ncnc21` [Compound 2-49, N-[(1S)-1-{[(cis)-2,6-dimethylmorpholin-4-yl]carbonyl}-2-methylpropyl]-9-ethyl-8-(2-methylpyrimidin-5-yl)-9H-purin-6-amine], the IC50 [1] was 4.1 nM and the “Selectivity versus PI3Kalpha” value [2] was >10.
With `CC[C@H](Nc1ncnc2c1nc(-c1cnc(C)nc1)n2CC)C(=O)N1CCCC(C)C1` (mixture of isomers) [Compound 2-23, 9-ethyl-N-{(1S)-1-[((R and S)-3-methylpiperidin-1-yl)carbonyl]propyl}-8-(2-methylpyrimidin-5-yl)-9H-purin-6-amine] the IC50 [1] was 9.3 nM and the “Selectivity versus PI3Kalpha” value [2] was >10.
With `CC[C@H](Nc1ncnc2c1nc(-c1cnc(C)nc1)n2CC)C(=O)N1C[C@H](C)O[C@@H](C)C1` (stereo in doubt) [Compound 2-36, N-[(1S)-1-{[(trans)-2,6-dimethylmorpholin-4-yl]carbonyl}propyl]-9-ethyl-8-(2-methylpyrimidin-5-yl)-9H-purin-6-amine] the IC50 [1] was 9.1 nM and the “Selectivity versus PI3Kalpha” value [2] was >10.
With `CCn1c(-c2cnc(C)nc2)nc2c(N[C@@H](COC)C(=O)N3C[C@@H](C)O[C@@H](C)C3)ncnc21` [Compound 2-46, N-[(1S)-2-[(cis)-2,6-dimethylmorpholin-4-yl]-1-(methoxymethyl)-2-oxoethyl]-9-ethyl-8-(2-methylpyrimidin-5-yl)-9H-purin-6-amine] the IC50 [1] was 27 nM and the “Selectivity versus PI3Kalpha” value [2] was >10.
For `CCC(Oc1ncnc2c1nc(-c1cnn(CC)c1C)n2C)C(=O)N1CCCCC1` (racemic) [Compound 1-2, (R and S)-8-(1-ethyl-5-methyl-1H-pyrazol-4-yl)-9-methyl-6-[1-(piperidin-1-ylcarbonyl)propoxy]-9H-purine], the IC50 [1] was 240 nM and the “Selectivity versus PI3Kalpha” value [2] was >10.
For `CCn1c(-c2cnc(C)nc2)nc2c(N[C@@H](C)C(=O)N3C[C@@H](C)O[C@@H](C)C3)ncnc21` [Compound 2-39, N-{(1S)-2-[(cis)-2,6-dimethylmorpholin-4-yl]-1-methyl-2-oxoethyl}-9-ethyl-8-(2-methylpyrimidin-5-yl)-9H-purin-6-amine], the IC50 [1] was 12 nM and the “Selectivity versus PI3Kalpha” value [2] was >10.
With `CC[C@H](Nc1ncnc2c1nc(-c1cnc(C)nc1)n2CC)C(=O)N1C[C@@H](C)N(C(C)=O)[C@@H](C)C1` [Compound 4-2, N-[(1S)-1-{[cis-4-acetyl-3,5-dimethylpiperazin-1-yl]carbonyl}propyl]-9-ethyl-8-(2-methylpyrimidin-5-yl)-9H-purin-6-amine] the IC50 [1] was 21 nM and the “Selectivity versus PI3Kalpha” value [2] was >10.
For `CCn1c(-c2cnc(C)nc2)nc2c(N[C@@H](CC(C)C)C(=O)N3C[C@@H](C)O[C@@H](C)C3)ncnc21` [Compound 2-44, N-[(1S)-1-{[(cis)-2,6-dimethylmorpholin-4-yl]carbonyl}-3-methylbutyl]-9-ethyl-8-(2-methylpyrimidin-5-yl)-9H-purin-6-amine], the IC50 [1] was 140 nM and the “Selectivity versus PI3Kalpha” value [2] was >10.
`CC[C@H](Nc1ccnc2c1nc(-c1cnc(C)nc1)n2CC)C(=O)N1C[C@@H](C)O[C@@H](C)C1` [Compound 3-1, N-[(1S)-1-{[(cis)-2,6-dimethylmorpholin-4-yl]carbonyl}propyl]-3-ethyl-2-(2-methylpyrimidin-5-yl)-3H-imidazo[4,5-b]pyridin-7-amine] was tested, and the IC50 [1] was 17 nM and the “Selectivity versus PI3Kalpha” value [2] was >10.
With `CC[C@H](Nc1ncnc2c1nc(-c1cnc(C)nc1)n2CC)C(=O)N1CCOCC1(C)C` [Compound 2-34, N-{(1S)-1-[(3,3-dimethylmorpholin-4-yl)carbonyl]propyl}-9-ethyl-8-(2-methylpyrimidin-5-yl)-9H-purin-6-amine] the IC50 [1] was 12 nM and the “Selectivity versus PI3Kalpha” value [2] was >10.
With `CCn1c(-c2cnc(C)nc2)nc2c(N[C@H](CC(=O)N3CCCC3)C(C)C)ncnc21` [Compound 2-62, 9-ethyl-N-[(1R)-1-(1-methylethyl)-3-oxo-3-pyrrolidin-1-ylpropyl]-8-(2-methylpyrimidin-5-yl)-9H-purin-6-amine] the IC50 [1] was 100 nM and the “Selectivity versus PI3Kalpha” value [2] was >10.
`CC[C@H](Nc1ccnc2c1nc(-c1ccc(C(F)(F)F)nc1)n2CC)C(=O)N1C[C@@H](C)O[C@@H](C)C1` [Compound 3-2, N-[(1S)-1-{[(cis)-2,6-dimethylmorpholin-4-yl]carbonyl}propyl]-3-ethyl-2-[6-(trifluoromethyl)pyridin-3-yl]-3H-imidazo[4,5-b]pyridin-7-amine] was tested, and the IC50 [1] was 6.2 nM and the “Selectivity versus PI3Kalpha” value [2] was >10.
In the case of `CCn1c(-c2cnc(C)nc2)nc2c(N[C@H](CC(=O)N3C[C@@H](C)O[C@@H](C)C3)c3ccccc3)ncnc21` [Compound 2-56, N-{(1R)-3-[(cis)-2,6-dimethylmorpholin-4-yl]-3-oxo-1-phenylpropyl}-9-ethyl-8-(2-methylpyrimidin-5-yl)-9H-purin-6-amine], the IC50 [1] is reported as 610 nM and the “Selectivity versus PI3Kalpha” value [2] is reported as >10.
In the case of `CCC(Oc1ncnc2c1nc(-c1cnn(CC)c1C)n2C)C(=O)N1CCOCC1` (racemic) [Compound 1-1, (R and S)-8-(1-ethyl-5-methyl-1H-pyrazol-4-yl)-9-methyl-6-[1-(morpholin-4-ylcarbonyl)propoxy]-9H-purine], the IC50 [1] is reported as 320 nM and the “Selectivity versus PI3Kalpha” value [2] is reported as >10.
With `CCn1c(-c2cnc(C)nc2)nc2c(N[C@H](C(=O)N3C[C@@H](C)O[C@@H](C)C3)C(C)(C)C)ncnc21` [Compound 2-42, N-[(1S)-1-{[(cis)-2,6-dimethylmorpholin-4-yl]carbonyl}-2,2-dimethylpropyl]-9-ethyl-8-(2-methylpyrimidin-5-yl)-9H-purin-6-amine] the IC50 [1] was 5.3 nM and the “Selectivity versus PI3Kalpha” value [2] was >10.
